Consider five molecules from patent US20100158850A1, “DENDRIMER BASED MODULAR PLATFORMS” (The Regents of the University of Michigan, priority 2008, published 2010).

The target of one experiment is T1, folic acid receptor (Homo sapiens, UniProt P15328).
T1 construct: performed using FA-receptor-expressing KB cells (ATCC #CCL-17); host or cells: KB cells
As to the kind of experiment: Blocking of folate receptors: uptake of targeted platform 15 in KB cells with 20-fold excess blocking agent. The class given is cell-based. To be noted: for Blocking of uptake of targeted platform 15 (FIG. 5d, 5e): 20 fold excess of blocking agent (for 13 with respect to folic acid content). How it is done: (§1) The uptake of the synthesized conjugates was performed using FA-receptor-expressing KB cells (ATCC #CCL-17) as previously described (see, e.g., Thomas et al, J. Med. Chem., 48, 3729-3735, 2005; herein incorporated by reference in its entirety). Cells were maintained in FA-free Roswell Park Memorial Institute-1640 (RPMI 1640) medium supplemented with 10% Fetal Bovine serum (FBS), […] L-glutamine, 100 U/ml penicillin and 100 μg/ml streptomycin in 5% CO2 at 37° C. Cells were planted into 24 wells plate at density 250,000 per well and allowed to reach ˜90% confluent on the day of the experiment. They were rinsed and incubated in serum free medium with conjugates for 1 hour at 37° C. in 5% CO2. In some wells, a 20-fold excess of free folic acid or the folic acid conjugated dendrimer was added 30 minutes prior to the addition of the dendrimer platform for the blocking of folate receptors.
(§2) The cellular fluorescence was quantified on a Beckman-Coulter EPICS-XL MCL flow cytometer, and the data were analyzed using Expo32 software (Beckman-Coulter, Miami, Fla.). Cells were trypsinized, rinsed and suspended in PBS containing 0.1% bovine serum albumin (PBSB). The viable cells were gated, and the mean FL1-fluorescence of 10,000 cells was quantified. Error bars are calculated using the half-peak coefficient of variation (HPCV) (see, e.g., Marie, D.; et al., Biol. Cell 1993, 78, 41-51; herein incorporated by reference in its entirety).
The final set of controls investigated active blocking of the folic acid receptor by either free folic acid (FIGS. 5d and 5f-green) or a folic acid-dendrimer conjugate without a fluorescent dye (13) (FIGS. 5e and 5f-orange) to prevent the specific up-take of the folic acid targeted dendrimer systema A 20 fold excess of blocking agent was employed relative to the targeted platform. For the blocking experiment using the single dendrimer-folic acid conjugate (13), molar equivalence was based on the folic acid content of the sample rather than the dendrimer content. Both blocking agents were evaluated at 30 nM, 100 nM, 300 nM, and 1000 nM. […] While the dendrimer-folic acid conjugate is not as effective at blocking as the free folic acid, approximately 75% blocking is achieved.

The subject of experiment [1] is FA-receptor-expressing KB cells. Description: Cellular uptake of dendrimer conjugates in KB cells measured by flow cytometry. In kind it is cell-based, human. Here is the method:
as §1, §2
Cellular uptake of the folic acid targeted dendrimer system (15) at four different concentrations (30 nM, 100 nM, 300 nM, and 1000 nM of 15) was measured in KB cells that express a high cellular membrane concentration of folic acid receptor (FAR). Fluorescence uptake was quantified by Flow Cytometry.
A series of control experiments were performed in order to ensure that uptake of the folic acid targeted dendrimer system (15) was occurring via receptor-mediated endocytosis and not non-specific membrane interactions. […] The second control sample contained a non-conjugated (un-clicked) mixture of the two dendrimers functionalized with either FITC or folic acid (13 and 14). Uptake of this mixture was quantified at 30 nM, 100 nM, and 300 nM (FIGS. 5c and 5f-teal). […] This control eliminates the possibility that the dendrimer modules could form a non-covalently linked complex that would be internalized. A third control sample (18) was composed of an un-targeted dendrimer module (17) coupled to the FITC conjugated imaging module (14). The un-targeted dual module platform (18) was assembled under the same conditions used to form the folic acid targeted platform (15). […] This un-targeted dendrimer platform control matches the molecular weight and size of the folic acid targeted dendrimer system (15).
On the technique in general: In flow cytometry, cells or beads pass a laser one at a time.

T1 sequence (P15328 25-234): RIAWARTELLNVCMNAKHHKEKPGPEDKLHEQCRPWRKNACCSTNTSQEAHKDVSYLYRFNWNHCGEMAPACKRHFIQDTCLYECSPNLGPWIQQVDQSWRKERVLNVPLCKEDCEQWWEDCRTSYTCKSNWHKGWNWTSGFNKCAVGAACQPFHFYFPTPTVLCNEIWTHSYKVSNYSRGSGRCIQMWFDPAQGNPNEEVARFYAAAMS

In the case of `Nc1nc2ncc(CNc3ccc(C(=O)N[C@@H](CCC(=O)O)C(=O)O)cc3)nc2c(=O)[nH]1` [free folic acid, folic acid, reference compound], the “Blocking of uptake of targeted platform 15 (FIG. 5d, 5e)” value on folic acid receptor is reported as “successfully blocked”. In addition, the “Blocking of uptake of targeted platform 15” value on folic acid receptor (20 fold excess, added 30 minutes before, concentrations up to 100 nM) is reported as “Complete blocking”.

Regarding “FA3.5-G5-Ac107-L-G5-Ac106-FITC3.2 [Compound 15]”, the “Cellular uptake (fluorescence, flow cytometry)” value in experiment [1] (KB cells, 1 hour at 37° C., 30 nM, 100 nM, 300 nM and 1000 nM) is reported as “dose dependent uptake”. For the same molecule, the “Concentration at which uptake saturates” value in experiment [1] (KB cells, 1 hour at 37° C., tested at 30-1000 nM) was 100 nM. Further, in experiment [1] (human epithelial cancer cell line (KB)), the “Specific targeting of folic acid receptor in vitro” value is “found to specifically target the over-expressed folic acid receptor”.

With G5-Ac106-Azide2.5-FITC3.2 [Compound 14], the “Cellular uptake (FIG. 5b)” value in experiment [1] (KB cells, 30 nM, 100 nM and 300 nM) is “not observed”; in experiment [1] (KB cells, 1000 nM), “Very minimal uptake”. In experiment [1] (KB cells, 30 nM, 100 nM, 300 nM and 1000 nM), the “Cellular uptake above the background level” value is on record as “No uptake was observed”.

On to G5-Ac107-Alkyne1.6-FA3.5 [Compound 13], for which, on folic acid receptor (20 fold excess based on folic acid content, evaluated at 30-1000 nM), the “Blocking of uptake of targeted platform 15” value is reported as “approximately 75%”. Besides, on folic acid receptor, the “Blocking of uptake of targeted platform 15 (FIG. 5d, 5e)” value is on record as “successfully blocked”.

For the molecule “G5-Ac110.7-L-G5-Ac106-FITC3.2 [Compound 18]”, in experiment [1] (KB cells, concentrations up to 300 nM), the “Mean fluorescence uptake beyond the background level” value is “no uptake was observed beyond the background level”.
